These results are taken from patent US7446199B2, “Compositions useful as inhibitors of protein kinases” (Vertex Pharmaceuticals Incorporated, priority 2003, dated 2008).

What is called Ki is the equilibrium dissociation constant of an inhibitor or competing ligand from its target.

Assay [1] has as its target GSK-3β, (AA 1-420) (Homo sapiens, UniProt P49841). As to the kind of experiment: GSK-3 inhibition assay, coupled enzyme system. The class given is biochemical. As to conditions: 20 μM ATP, 300 μM peptide, 20 nM GSK-3b, 30° C.; read-out: Ki values (GSK3). The method in brief: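 Pyruvate kinase/lactate dehydrogenase-coupled NADH assay with 20 nM enzyme, 20 μM ATP and 300 μM peptide in HEPES pH 7.5, 1.5% DMSO, 30° C. Compound (0.002–30 μM, 12-point) preincubated 10 min before ATP start; rates over 10 min gave Ki.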

Assay [2] addresses c-Met (Homo sapiens, UniProt P08581). As to the kind of experiment: Ki determination for the inhibition of c-Met, coupled enzyme system. The assay is classed as biochemical. As to conditions: 200 μM ATP, 10 μM polyGluTyr, 80 nM c-Met, 30° C. Summed up:
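Coupled pyruvate kinase/lactate dehydrogenase NADH assay with 80 nM c-Met, 200 μM ATP, 10 μM polyGluTyr in pH 7.5 HEPES, 1.5% DMSO at 30° C. Compound (0.006–12.5 μM final, 12-point) preincubated 10 min; ATP started reaction, rates read over 10 min; Ki derived from rate versus inhibitor concentration.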

GSK-3β, (AA 1-420), sequence (P49841 whole entry, the tested form may be a part): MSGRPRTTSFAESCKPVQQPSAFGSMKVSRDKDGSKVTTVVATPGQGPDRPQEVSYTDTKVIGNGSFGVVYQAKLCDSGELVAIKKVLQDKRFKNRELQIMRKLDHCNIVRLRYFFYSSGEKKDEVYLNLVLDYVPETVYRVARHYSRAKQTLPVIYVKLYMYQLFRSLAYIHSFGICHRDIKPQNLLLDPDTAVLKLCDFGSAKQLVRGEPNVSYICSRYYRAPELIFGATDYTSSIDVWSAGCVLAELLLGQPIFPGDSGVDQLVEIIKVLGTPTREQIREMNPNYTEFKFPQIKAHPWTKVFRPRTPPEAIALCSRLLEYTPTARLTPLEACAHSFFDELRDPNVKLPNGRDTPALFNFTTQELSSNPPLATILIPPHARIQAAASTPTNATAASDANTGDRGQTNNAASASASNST
c-Met, sequence (P08581 25-1390): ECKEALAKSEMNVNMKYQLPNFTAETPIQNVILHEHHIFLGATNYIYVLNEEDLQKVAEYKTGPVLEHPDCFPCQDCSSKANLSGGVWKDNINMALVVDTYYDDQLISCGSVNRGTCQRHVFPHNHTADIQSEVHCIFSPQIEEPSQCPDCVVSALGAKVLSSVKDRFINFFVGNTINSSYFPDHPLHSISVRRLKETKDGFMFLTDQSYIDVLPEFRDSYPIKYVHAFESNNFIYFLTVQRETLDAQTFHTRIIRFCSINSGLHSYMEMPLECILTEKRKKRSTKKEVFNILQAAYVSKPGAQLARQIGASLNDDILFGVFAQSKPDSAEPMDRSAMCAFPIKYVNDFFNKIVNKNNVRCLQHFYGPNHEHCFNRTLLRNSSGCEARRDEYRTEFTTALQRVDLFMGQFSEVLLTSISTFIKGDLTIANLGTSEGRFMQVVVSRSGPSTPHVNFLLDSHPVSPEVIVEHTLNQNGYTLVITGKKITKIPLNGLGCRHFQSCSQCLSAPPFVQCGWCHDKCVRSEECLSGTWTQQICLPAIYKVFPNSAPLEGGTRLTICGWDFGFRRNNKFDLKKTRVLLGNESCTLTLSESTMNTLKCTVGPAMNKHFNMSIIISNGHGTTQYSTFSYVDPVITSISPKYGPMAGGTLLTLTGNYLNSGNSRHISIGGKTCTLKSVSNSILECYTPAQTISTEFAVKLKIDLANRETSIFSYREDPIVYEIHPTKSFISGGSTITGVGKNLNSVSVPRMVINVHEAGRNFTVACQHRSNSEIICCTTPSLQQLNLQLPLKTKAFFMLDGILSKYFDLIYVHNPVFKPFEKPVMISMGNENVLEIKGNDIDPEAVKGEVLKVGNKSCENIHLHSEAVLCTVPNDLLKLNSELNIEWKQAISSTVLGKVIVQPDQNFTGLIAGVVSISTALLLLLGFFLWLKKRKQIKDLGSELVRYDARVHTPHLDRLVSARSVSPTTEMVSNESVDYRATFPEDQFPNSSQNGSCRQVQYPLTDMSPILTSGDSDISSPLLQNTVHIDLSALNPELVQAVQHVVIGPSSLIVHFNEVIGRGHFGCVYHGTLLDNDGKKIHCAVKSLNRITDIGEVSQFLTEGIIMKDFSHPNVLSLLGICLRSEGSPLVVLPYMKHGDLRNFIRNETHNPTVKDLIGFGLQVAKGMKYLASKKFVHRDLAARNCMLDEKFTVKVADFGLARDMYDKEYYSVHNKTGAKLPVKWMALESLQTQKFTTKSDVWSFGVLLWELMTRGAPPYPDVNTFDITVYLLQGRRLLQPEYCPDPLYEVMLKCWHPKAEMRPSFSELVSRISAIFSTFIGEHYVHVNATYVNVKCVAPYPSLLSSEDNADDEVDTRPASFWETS

In the case of `Fc1cccc(-c2cnoc2-c2c[nH]c3ncc(CCn4cncn4)cc23)c1F` [Compound 132, 3-[4-(2,3-Difluoro-phenyl)-isoxazol-5-yl]-5-(2-[1,2,4]triazol-1-yl-ethyl)-1H-pyrrolo[2,3-b]pyridine], the Ki in assay [1] and in assay [2] was 200 to 1000 nM throughout.

As to `C[N+]1(C)CCN(c2ccc(-c3cnc4[nH]cc(-c5oncc5-c5cccc(F)c5F)c4c3)cc2)CC1` [Compound 155], the Ki in assay [1] and in assay [2] was less than 200 nM each time.

As to `Fc1cccc(-c2cnoc2-c2c[nH]c3ccc(-c4ccncc4)cc23)c1F` [Compound 34, 3-[4-(2,3-Difluoro-phenyl)-isoxazol-5-yl]-5-pyridin-4-yl-1H-indole], the Ki in assay [1] fell in the range of 1000 to 12500 nM.

For `O=C(c1cnc2[nH]cc(-c3oncc3-c3cccc(F)c3F)c2c1)N1CCCC1` [Compound 104, {3-[4-(2,3-Difluoro-phenyl)-isoxazol-5-yl]-1H-pyrrolo[2,3-b]pyridin-5-yl}-pyrrolidin-1-yl-methanone], the Ki lay in the range of 1000 to 12500 nM in assay [1] and 200 to 1000 nM in assay [2].

Consider `Fc1cccc(-c2cnoc2-c2c[nH]c3ncc(Cl)cc23)c1F` [Compound 44, 3-[4-(2,3-Difluoro-phenyl)-isoxazol-5-yl]-5-chloro-1H-pyrrolo[2,3-b]pyridine], for which the Ki in assay [1] was 200 to 1000 nM; in assay [2] it was less than 200 nM.

Take `COc1cnc2[nH]cc(-c3nncn3-c3cccc(F)c3F)c2c1` [Compound 108, 3-[4-(2,3-Difluoro-phenyl)-4H-[1,2,4]triazol-3-yl]-5-methoxy-1H-pyrrolo[2,3-b]pyridine]: the Ki in assay [1] was 1000 to 12500 nM; in assay [2] it was 200 to 1000 nM.

For `CN1CCN(C(=O)[C@H]2C[C@@H]2c2cnc3[nH]cc(-c4oncc4-c4cccc(F)c4F)c3c2)CC1` (relative stereo) [Compound 142, trans-(2-{3-[4-(2,3-Difluoro-phenyl)-isoxazol-5-yl]-1H-pyrrolo[2,3-b]pyridin-5-yl}-cyclopropyl)-(4-methyl-piperazin-1-yl)-methanone], the Ki in assay [1] was 200 to 1000 nM; in assay [2], less than 200 nM.

For `c1ccc(-c2cnoc2-c2c[nH]c3ncccc23)cc1` [Compound 35, 3-[4-Phenyl-isoxazol-5-yl]-1H-pyrrolo[2,3-b]pyridine], the values for the Ki in assay [1] and in assay [2] were 1000 to 12500 nM and 200 to 1000 nM, respectively.

Turning to `Fc1cccc(-n2cnnc2-c2c[nH]c3ncc(-c4ccc(N5CCNCC5)nc4)cc23)c1F` [Compound 111, 3-[4-(2,3-Difluoro-phenyl)-4H-[1,2,4]triazol-3-yl]-5-(6-piperazin-1-yl-pyridin-3-yl)-1H-pyrrolo[2,3-b]pyridine], the results for the Ki in assay [1] and in assay [2] were 1000 to 12500 nM and 200 to 1000 nM, respectively.

As for `Fc1cnc2[nH]cc(-c3oncc3-c3cccc(F)c3F)c2c1` [Compound 45, 3-[4-(2,3-Difluoro-phenyl)-isoxazol-5-yl]-5-fluoro-1H-pyrrolo[2,3-b]pyridine], the Ki lay in the range of 1000 to 12500 nM in assay [1] and 200 to 1000 nM in assay [2].

Consider `Fc1cccc(-c2cnoc2-c2c[nH]c3nc(Cl)c(-c4ccncc4)cc23)c1F` [Compound 103, 6-Chloro-3-[4-(2,3-difluoro-phenyl)-isoxazol-5-yl]-5-pyridin-4-yl-1H-pyrrolo[2,3-b]pyridine], for which the inhibition constant Ki was 1000 to 12500 nM in assay [1] and 200 to 1000 nM in assay [2].

On to `Fc1cccc(-c2cnoc2-c2n[nH]c3ncccc23)c1F` [Compound 31, 3-(4-(2,3-difluorophenyl)isoxazol-5-yl)-1H-pyrazolo[3,4-b]pyridine], for which the Ki in assay [2] was 200 to 1000 nM.

With `OB(O)c1cnc2[nH]cc(-c3oncc3-c3cccc(F)c3F)c2c1` [Compound 154], the values for the Ki in assay [1] and in assay [2] were 1000 to 12500 nM and less than 200 nM, respectively.

With `Fc1cc(F)c(F)c(-c2cnoc2-c2c[nH]c3ncccc23)c1` [Compound 39, 3-[4-(2,3,5-Trifluoro-phenyl)-isoxazol-5-yl]-1H-pyrrolo [2,3-b]pyridine], the results for the Ki in assay [1] and in assay [2] were 1000 to 12500 nM and 200 to 1000 nM, respectively.

As to `Cc1cnc2[nH]cc(-c3oncc3-c3cccc(F)c3F)c2c1` [Compound 46, 3-[4-(2,3-Difluoro-phenyl)-isoxazol-5-yl]-5-methyl-1H-pyrrolo[2,3-b]pyridine], the results for the Ki in assay [1] and in assay [2] were 1000 to 12500 nM and less than 200 nM, respectively.

Regarding `CN(C)C1CCC(c2cnc3[nH]cc(-c4oncc4-c4cccc(F)c4F)c3c2)CC1` (stereo not drawn) [Compound 141, (4-{3-[4-(2,3-Difluoro-phenyl)-isoxazol-5-yl]-1H-pyrrolo[2,3-b]pyridin-5-yl}-cyclohexyl)-dimethylamine], the Ki in assay [1] and in assay [2] was less than 200 nM in each case.

As for `NC(=O)c1ccc(-c2cnc3[nH]cc(-c4oncc4-c4cccc(F)c4F)c3c2)cc1` [Compound 153], the Ki in assay [1] was 1000 to 12500 nM; in assay [2] it was less than 200 nM.

Regarding `OCc1cnc2[nH]cc(-c3oncc3-c3cccc(F)c3F)c2c1` [Compound 55, {3-[4-(2,3-Difluoro-phenyl)-isoxazol-5-yl]-1H-pyrrolo[2,3-b]pyridin-5-yl}-methanol], the figures for the Ki in assay [1] and in assay [2] were 1000 to 12500 nM and 200 to 1000 nM, respectively.

With `Fc1ccc(F)c(-c2cnoc2-c2c[nH]c3ncccc23)c1F` [Compound 41, 3-[4-(2,3,6-Trifluoro-phenyl)-isoxazol-5-yl]-1H-pyrrolo [2,3-b]pyridine], the Ki lay in the range of 1000 to 12500 nM in assay [1] and 200 to 1000 nM in assay [2].
